From article PMC5733700 (Bioorganic & medicinal chemistry, 2017) come the findings set out here.

In series [1] the target is BRD2-BD2 (348–455) (Homo sapiens, UniProt P25440). As to the kind of experiment: Isothermal titration calorimetry. It is filed as binding. The following applies: 15 °C, no DMSO in buffer.
Series [2] addresses BRD2-BD1 (74–194) (Homo sapiens, UniProt P25440). Kind of series: Isothermal titration calorimetry. It is filed as binding. The following applies: 15 °C, no DMSO in buffer.
For series [3], the system named is HEPG2 cells. Kind of series: Non-specific cytotoxicity, HEPG2 control cell line. The settings on record: control hepatocarcinoma cell line; 3 days exposure. It is filed as cell-based.
Series [4] deals with BJ cells. Kind of series: Non-specific cytotoxicity, BJ control cell line. Format: cell-based. The settings on record: control immortalized fibroblast cell line; 3 days exposure.
Series [5] relates to HEK293 cells. As to the kind of experiment: Non-specific cytotoxicity, HEK293 control cell line. It is filed as cell-based. The settings on record: control embryonic kidney cell line; 3 days exposure.

Chain of BRD2-BD2 (348–455) (P25440 348-455): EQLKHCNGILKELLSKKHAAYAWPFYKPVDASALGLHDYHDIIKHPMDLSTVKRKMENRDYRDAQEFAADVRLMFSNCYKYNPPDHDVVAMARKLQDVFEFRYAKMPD
Chain of BRD2-BD1 (74–194) (P25440 74-194): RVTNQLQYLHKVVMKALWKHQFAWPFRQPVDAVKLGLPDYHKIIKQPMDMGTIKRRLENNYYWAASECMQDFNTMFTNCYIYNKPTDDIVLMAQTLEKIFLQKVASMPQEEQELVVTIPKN

For the molecule `Cc1sc2c(c1C)C(c1ccc(Cl)cc1)=N[C@@H](CC(=O)OC(C)(C)C)c1nnc(C)n1-2` [Compound 1, (+)-JQ1, reference compound], in series [1], the “ITC ΔH, BRD2 BD2” value is -1.47 kcal/mol and the “ITC −TΔS, BRD2 BD2” value is -7.83 kcal/mol. Further, in series [2], the “ITC ΔH, BRD2 BD1” value was -4.9 kcal/mol and the “ITC −TΔS, BRD2 BD1” value was -4.39 kcal/mol.
Regarding `CC(=O)N1c2ccc(-c3ccco3)cc2[C@H](NC(=O)OC(C)C)C[C@@H]1C` [Compound 9, Isopropyl ((2S,4R)-1-acetyl-6-(furan-2-yl)-2-methyl-1,2,3,4-tetrahydroquinolin-4-yl)carbamate], the “Cytotoxicity EC50, HEPG2” value in series [3] is on record as “did not exhibit cytotoxicity at the highest concentrations tested”. In addition, the “Cytotoxicity EC50, BJ” value in series [4] was “did not exhibit cytotoxicity at the highest concentrations tested”. Besides, in series [5], the “Cytotoxicity EC50, HEK293” value is listed as “did not exhibit cytotoxicity at the highest concentrations tested”. Further, in series [2], the “ITC ΔG, BRD2 BD1” value was -7.47 kcal/mol; the “ITC ΔH, BRD2 BD1” value was -7.27 kcal/mol; the “ITC −TΔS, BRD2 BD1” value is -0.2 kcal/mol.
Take `CC(=O)N1c2ccc(-c3cccs3)cc2[C@H](NC(=O)OC(C)C)C[C@@H]1C` [Compound 10, Isopropyl ((2S,4R)-1-acetyl-2-methyl-6-(thiophen-2-yl)-1,2,3,4-tetrahydroquinolin-4-yl)carbamate]: in series [1], the “ITC ΔG, BRD2 BD2” value was -10.12 kcal/mol; the “ITC ΔH, BRD2 BD2” value is -7.18 kcal/mol; the “ITC −TΔS, BRD2 BD2” value is -2.94 kcal/mol. Besides, in series [2], the “ITC ΔG, BRD2 BD1” value was -9.52 kcal/mol; the “ITC ΔH, BRD2 BD1” value was -8.27 kcal/mol; the “ITC −TΔS, BRD2 BD1” value was -1.25 kcal/mol.
For the molecule `CC(=O)N1c2ccc(-c3ccc[nH]3)cc2[C@H](NC(=O)OC(C)C)C[C@@H]1C` [Compound 11, Isopropyl ((2S,4R)-1-acetyl-2-methyl-6-(1H-pyrrol-2-yl)-1,2,3,4-tetrahydroquinolin-4-yl)carbamate], in series [1], the “ITC ΔG, BRD2 BD2” value was -9.82 kcal/mol; the “ITC ΔH, BRD2 BD2” value was -6.89 kcal/mol; the “ITC −TΔS, BRD2 BD2” value is -2.92 kcal/mol. In series [2], the “ITC ΔG, BRD2 BD1” value was -9.08 kcal/mol; the “ITC ΔH, BRD2 BD1” value is -6.9 kcal/mol; the “ITC −TΔS, BRD2 BD1” value was -2.18 kcal/mol.
As for `CC(=O)N1c2ccc(-c3ccoc3)cc2[C@H](NC(=O)OC(C)C)C[C@@H]1C` [Compound 12, Isopropyl ((2S,4R)-1-acetyl-6-(furan-3-yl)-2-methyl-1,2,3,4-tetrahydroquinolin-4-yl)carbamate], in series [1], the “ITC ΔG, BRD2 BD2” value was -8.61 kcal/mol; the “ITC ΔH, BRD2 BD2” value is -6.31 kcal/mol; the “ITC −TΔS, BRD2 BD2” value is -2.29 kcal/mol. Further, in series [2], the “ITC ΔG, BRD2 BD1” value was -8.96 kcal/mol; the “ITC ΔH, BRD2 BD1” value was -9.9 kcal/mol; the “ITC −TΔS, BRD2 BD1” value came to 0.94 kcal/mol.
Consider `CC(=O)N1c2ccc(-c3ccsc3)cc2[C@H](NC(=O)OC(C)C)C[C@@H]1C` [Compound 13, Isopropyl ((2S,4R)-1-acetyl-2-methyl-6-(thiophen-3-yl)-1,2,3,4-tetrahydroquinolin-4-yl)carbamate], for which, in series [1], the “ITC ΔG, BRD2 BD2” value is -10.25 kcal/mol; the “ITC ΔH, BRD2 BD2” value is -6.92 kcal/mol; the “ITC −TΔS, BRD2 BD2” value was -3.33 kcal/mol. Further, in series [2], the “ITC ΔG, BRD2 BD1” value was -9.43 kcal/mol; the “ITC ΔH, BRD2 BD1” value was -7.69 kcal/mol; the “ITC −TΔS, BRD2 BD1” value is -1.74 kcal/mol.
On to `CC(=O)N1c2ccc(-c3cc[nH]c3)cc2[C@H](NC(=O)OC(C)C)C[C@@H]1C` [Compound 14, Isopropyl ((2S,4R)-1-acetyl-2-methyl-6-(1H-pyrrol-3-yl)-1,2,3,4-tetrahydroquinolin-4-yl)carbamate], for which, in series [1], the “ITC ΔG, BRD2 BD2” value was -10.15 kcal/mol; the “ITC ΔH, BRD2 BD2” value was -7.01 kcal/mol; the “ITC −TΔS, BRD2 BD2” value is -3.32 kcal/mol. In series [2], the “ITC ΔG, BRD2 BD1” value is -9.28 kcal/mol; the “ITC ΔH, BRD2 BD1” value is -7.33 kcal/mol; the “ITC −TΔS, BRD2 BD1” value was -1.95 kcal/mol.
